Assay [1] relates to wt-mt (RNA, rRNA) GGCGUCACCCUCCUC/GAGGAGACAAGUCGCC
Description: fluorescence titration. Conditions: 150 mM NaCl, 3 mM Na2EDTA; apparent; 10 mM HEPES pH 7.4; 1 μM RNA.

The subject of assay [2] is mut-mt (RNA, rRNA) GGCGUCACCCUCCUC/GAGGAGGCAAGUCGCC
In words: fluorescence titration. Conditions: 150 mM NaCl, 3 mM Na2EDTA; apparent; 10 mM HEPES pH 7.4; 1 μM RNA.

For the compound `CCO[C@H]1[C@H](O)[C@@H](N)[C@@H](O[C@H]2[C@H](O[C@@H]3O[C@H](CO)[C@@H](O[C@H]4O[C@@H](CN)[C@@H](O)[C@H](O)[C@H]4N)[C@H]3O)[C@@H](O)[C@H](N)C[C@@H]2N)O[C@@H]1CO`, the results for the Kd in assay [1] and in assay [2] were 12.8 ± 2.8 µM and 8.6 ± 2.1 µM, respectively.

For `NC[C@@H]1O[C@H](O[C@H]2[C@@H](O)[C@H](O[C@@H]3[C@@H](O)[C@H](N)C[C@H](N)[C@H]3O[C@H]3O[C@H](CN)[C@@H](O)[C@H](O)[C@H]3N)O[C@@H]2CO)[C@H](N)[C@@H](O)[C@@H]1O`, the Kd in assay [1] worked out at 1.1 ± 0.5 µM; in assay [2] it was 0.1 ± 0.02 µM.

In the case of `NC[C@@H]1O[C@H](O[C@H]2[C@@H](O)[C@H](O[C@@H]3[C@@H](O)[C@H](N)C[C@H](N)[C@H]3O[C@H]3O[C@H](CO)[C@@H](O)[C@H](O)[C@H]3N)O[C@@H]2CO)[C@H](N)[C@@H](O)[C@@H]1O`, the Kd came to 6.5 ± 0.9 µM in assay [1] and 2.8 ± 0.5 µM in assay [2].

Regarding `CCC[C@H]1[C@H](O)[C@@H](N)[C@@H](O[C@H]2[C@H](O[C@@H]3O[C@H](CO)[C@@H](O[C@H]4O[C@@H](CN)[C@@H](O)[C@H](O)[C@H]4N)[C@H]3O)[C@@H](O)[C@H](N)C[C@@H]2N)O[C@@H]1CO`, the Kd turned out to be 26.9 ± 4.7 µM in assay [1] and 5.8 ± 1.8 µM in assay [2].

Source of the values: publication PMC6961810 (2019).
